# Test results taken from patent US11053175B2, “Thioether compounds as nitrification inhibitors” (BASF SE, priority 2015, dated 2021).
# System: nitrification in soil
# Test: Inhibition of nitrification in soil (48 well plate, ammonium sulfate, colour reaction read at 540 nm)
# Assay type: cell-based
# Conditions: 72 h, dose of 10 ppm; soil, up to 72 hrs at room temperature; control DMSO only; best value obtained; read-out: IN (best inhibition value, inhibition of nitrification = 100 - % activity compared to control)
# Procedure: The compounds of the invention have been tested as follows in terms of the inhibition of nitrification: Soil was sampled fresh from a field (e.g. Limburgerhof), dried and sieved through a 500 μm sieve. Approximately 200 mg of soil were placed into each well of a 48 well plate. Compounds, or DMSO alone, were added at a concentration of 10 ppm, dissolved in 1% DMSO. 6 μmol ammonium sulfate was added per well as well as 4.8 mg NaClO3.
# Subsequently, the samples were incubated at room temperature for up to 72 hrs. After the incubation period 64 mg KCl were added and mixed. 25 μl of the supernatant were placed into a fresh plate and 260 μl of a color reaction solution (from Merck Nr 1.11799.0100) were added.
# Measurements were taken with a Tecan plate Reader at 540 nm wavelength.
# Inhibition is calculated as x=% activity compared to control, and converted to 100-x to give the value of inhibition, rather than activity.
row,Structure (SMILES),inhibition at 10 ppm [%]
1,C#CCS/C(N)=N\N=C\c1ccc(OC)cc1 [Compound 1-1],42
2,C#CCSC1=NCCN1/N=C/c1ccc(C)cc1 [Compound 1-3],68
3,C#CCSc1ncccn1 [Compound 1-6],59
4,C#CC[S+]([O-])CC#C [Compound 1-7],72
5,C#CCS(=O)(=O)CC#C [Compound 1-8],70
6,C#CCS/C(C)=N\O [Compound 1-9],67
7,C#CCS/C(N)=N\N=C\c1ccc(F)cc1 [Compound 1-10],59
8,C#CCSc1nc2ccsc2c(=O)n1C [Compound 1-11],55
9,C#CCSc1nc2c(cc1C#N)CCC2 [Compound 1-12],52
10,C#CCSc1nnc(S)s1 [Compound 1-13],51
11,C#CCSC1=NNC(c2ccccn2)S1 (stereo not shown) [Compound 1-17],46
12,C#CCSc1sc2ccccc2[n+]1C [Compound 1-18],44
13,C#CCSc1nccn1-c1ncc(C(F)(F)F)cc1Cl [Compound 1-19],42
14,C#CCCS/C(C)=N\O [Compound 1-20],48
15,C#CCSc1cnccn1 [Compound 1-21],69
16,C#CCSc1cnc2ccccc2n1 [Compound 1-23],33

# Same assay, conditions: dose of 10 ppm; soil, up to 72 hrs at room temperature; control DMSO only; best value obtained
row,Structure (SMILES),"IN (best inhibition value, inhibition of nitrification = 100 - % activity compared to control) [%]"
1,C#CCSc1sc2ccccc2[n+]1C.[Br-] [Compound 1-22],42

# Same assay, conditions: reference compound, same conditions, dose of 10 ppm; read-out: IN (inhibition value, inhibition of nitrification)
row,Structure (SMILES),inhibition at 10 ppm [%]
1,"C#Cc1ccccc1 [Phenylacetylene, phenylacetylene, reference compound]",7

# System: nitrification in soil
# Test: as above
# Assay type: cell-based
# Conditions: dose of 3% a.i./NH, best value obtained, read-out: IN (best inhibition value, inhibition of nitrification = 100 - % activity compared to control)
row,Structure (SMILES),inhibition at 3 % strength [%]
1,C#CCSc1sc2ccccc2[n+]1C [Compound 2-1],20
2,C#CCS/C(N)=N\N=C\c1ccc(N(C)C)cc1 [Compound 2-2],20
3,C#CC[S+]([O-])Cc1ccc(OC)cc1 (stereo not shown) [Compound 2-3],23
4,C#CCS(=O)(=O)Cc1ccccc1 [Compound 2-4],23
5,C#CC[S+]([O-])Cc1ccc(Cl)cc1 (stereo not shown) [Compound 2-5],24
6,C#CCSCc1ccc(Cl)cc1 [Compound 2-6],28
7,C#CCSCc1ccccc1 [Compound 2-7],28
8,C#CCSc1nnc(N)s1 [Compound 2-8],38
9,C#CCSc1ccccc1 [Compound 2-9],48
10,C#CCSCC#C [Compound 2-10],97
